Results published in patent publication US5190741A, “Agents for diagnosing and treating melanomas, aromatic halogenated derivatives usable as such agents and their preparation” (Institut National de la Sante et de la Recherche Medicale …, priority 1989, dated 1993).
Read-outs that look alike come from different tables or passages of the source.

What was measured:
B16 murine melanoma = assay: Tissue distribution in C57 BL6 mice bearing B16; assay type: in vivo, mouse; details: mouse, in vivo
Description: (§1) The study of the tissue distribution of the ^125 I labelled compounds was performed in mice bearing grafted melanomas (cf. autoradiograms above). […] The animals are sacrificed at different time intervals of 1 to 24 hours after the injection. The blood is collected and the principal organs are excised. Aliquots are weighed and the radioactivity of the samples is measured in a […] 1191 counter (analytic tracer). The counting yield for iodine 125 is 60%. The results are expressed: as a percentage of the injected dose bound per g of tissue (% ID/g); in the form of the ratios [formula] This ratio reflects more precisely the selectivity of a molecule for an organ (tables 2, 4, 6, 8, 10 and 12).

[1] = Tissue distribution in C57 BL6 mice bearing B16; assay type: in vivo, mouse; details: mouse, iv, 3 umol/animal
Description: as §1

[2] = intestine, read-out: intestine % ID/g
[3] = kidney, read-out: kidney % ID/g
[4] = muscle, read-out: muscle % ID/g
[5] = pancreas, read-out: pancreas % ID/g
[6] = plasma, read-out: plasma % ID/g
[7] = spleen, read-out: spleen % ID/g
[8] = stomach, read-out: stomach % ID/g
[9] = submaxillary glands, read-out: submaxillary glands % ID/g

With `CCN(CC)CCNC(=O)c1ccc(I)cc1` [Derivative A, N-(2-diethylaminoethyl) 4-iodo benzamide] the “marker of the B16 murine melanoma” value (B16 murine melanoma) was “markers of the B16 murine melanoma”, the tissue uptake at 1 h ([1]; blood, read-out: blood % ID/g) was 1.04 %ID/g and the tissue uptake at 2 h ([1]; blood, read-out: blood % ID/g) was 0.74 %ID/g. It also gave a tissue uptake at 4 h ([1]; blood, read-out: blood % ID/g) of 0.54 %ID/g, a tissue uptake at 6 h ([1]; blood, 6 h, read-out: blood % ID/g) of 0.21 %ID/g and a tissue uptake at 24 h ([1]; blood, read-out: blood % ID/g) of 0.022 %ID/g. For the same compound, the tissue uptake at 8 h ([1]; blood, 8 h, read-out: blood % ID/g) was 0.34 %ID/g, the tissue uptake at 12 h ([1]; blood, read-out: blood % ID/g) was 0.09 %ID/g and the tissue uptake at 1 h ([1]; brain, read-out: brain % ID/g) was 2.67 %ID/g. For the same compound, the tissue uptake at 2 h ([1]; brain, read-out: brain % ID/g) was 1.4 %ID/g, the tissue uptake at 4 h ([1]; brain, read-out: brain % ID/g) was 0.7 %ID/g and the tissue uptake at 6 h ([1]; brain, 6 h, read-out: brain % ID/g) was 0.32 %ID/g. It also gave a tissue uptake at 24 h ([1]; brain, read-out: brain % ID/g) of 0.005 %ID/g, a tissue uptake at 8 h ([1]; brain, 8 h, read-out: brain % ID/g) of 0.18 %ID/g and a tissue uptake at 12 h ([1]; brain, read-out: brain % ID/g) of 0.04 %ID/g. The tissue uptake at 1 h ([1]; eye, read-out: eye % ID/g) was 13.6 %ID/g, the tissue uptake at 2 h ([1]; eye, read-out: eye % ID/g) was 13 %ID/g and the tissue uptake at 4 h ([1]; eye, read-out: eye % ID/g) was 12.4 %ID/g. It also gave a tissue uptake at 6 h ([1]; eye, 6 h, read-out: eye % ID/g) of 12.1 %ID/g, a tissue uptake at 24 h ([1]; eye, read-out: eye % ID/g) of 6.65 %ID/g and a tissue uptake at 8 h ([1]; eye, 8 h, read-out: eye % ID/g) of 8.07 %ID/g. For the same compound, the tissue uptake at 12 h ([1]; eye, read-out: eye % ID/g) was 8.49 %ID/g, the tissue uptake at 1 h [1, 2] was 5.22 %ID/g and the tissue uptake at 2 h [1, 2] was 3.94 %ID/g. For the same compound, the tissue uptake at 4 h [1, 2] was 2.8 %ID/g, the tissue uptake at 6 h ([1]; intestine, 6 h, read-out: intestine % ID/g) was 0.75 %ID/g and the tissue uptake at 8 h ([1]; intestine, 8 h, read-out: intestine % ID/g) was 0.71 %ID/g. For the same compound, the tissue uptake at 12 h [1, 2] was 0.14 %ID/g, the tissue uptake at 24 h [1, 2] was 0.02 %ID/g and the tissue uptake at 1 h [1, 3] was 8.56 %ID/g. The tissue uptake at 2 h [1, 3] was 5.93 %ID/g, the tissue uptake at 4 h [1, 3] was 3.67 %ID/g and the tissue uptake at 6 h ([1]; kidney, 6 h, read-out: kidney % ID/g) was 1.1 %ID/g. The tissue uptake at 24 h [1, 3] was 0.07 %ID/g, the tissue uptake at 8 h ([1]; kidney, 8 h, read-out: kidney % ID/g) was 0.84 %ID/g and the tissue uptake at 12 h [1, 3] was 0.19 %ID/g. For the same compound, the tissue uptake at 1 h ([1]; liver, read-out: liver % ID/g) was 6.04 %ID/g, the tissue uptake at 2 h ([1]; liver, read-out: liver % ID/g) was 4.02 %ID/g and the tissue uptake at 4 h ([1]; liver, read-out: liver % ID/g) was 2.46 %ID/g. It also gave a tissue uptake at 6 h ([1]; liver, 6 h, read-out: liver % ID/g) of 0.95 %ID/g, a tissue uptake at 24 h ([1]; liver, read-out: liver % ID/g) of 0.16 %ID/g and a tissue uptake at 8 h ([1]; liver, 8 h, read-out: liver % ID/g) of 0.8 %ID/g. The tissue uptake at 12 h ([1]; liver, read-out: liver % ID/g) was 0.25 %ID/g, the tissue uptake at 1 h ([1]; lung, read-out: lungs % ID/g) was 11 %ID/g and the tissue uptake at 2 h ([1]; lung, read-out: lungs % ID/g) was 6.12 %ID/g. The tissue uptake at 4 h ([1]; lung, read-out: lungs % ID/g) was 4.29 %ID/g, the tissue uptake at 6 h ([1]; lung, 6 h, read-out: lungs % ID/g) was 1.99 %ID/g and the tissue uptake at 8 h ([1]; lung, 8 h, read-out: lungs % ID/g) was 1.11 %ID/g. It also gave a tissue uptake at 12 h ([1]; lung, read-out: lungs % ID/g) of 0.2 %ID/g, a tissue uptake at 24 h ([1]; lung, read-out: lungs % ID/g) of 0.05 %ID/g and a tissue uptake at 6 h ([1]; lung, as from the 6th hour, mice bearing melanic melanomas, read-out: pulmonary binding) of under 1 %ID/g. It also gave a tissue uptake at 1 h [1, 4] of 1.55 %ID/g, a tissue uptake at 2 h [1, 4] of 1.13 %ID/g and a tissue uptake at 4 h [1, 4] of 0.66 %ID/g. It also gave a tissue uptake at 6 h ([1]; muscle, 6 h, read-out: muscle % ID/g) of 0.19 %ID/g, a tissue uptake at 24 h [1, 4] of 0.009 %ID/g and a tissue uptake at 8 h ([1]; muscle, 8 h, read-out: muscle % ID/g) of 0.14 %ID/g. It also gave a tissue uptake at 12 h [1, 4] of 0.03 %ID/g, a tissue uptake at 1 h [1, 5] of 5.34 %ID/g and a tissue uptake at 2 h [1, 5] of 3.42 %ID/g. It also gave a tissue uptake at 4 h [1, 5] of 2.01 %ID/g, a tissue uptake at 6 h ([1]; pancreas, 6 h, read-out: pancreas % ID/g) of 0.55 %ID/g and a tissue uptake at 8 h ([1]; pancreas, 8 h, read-out: pancreas % ID/g) of 0.41 %ID/g. It also gave a tissue uptake at 12 h [1, 5] of 0.13 %ID/g, a tissue uptake at 24 h [1, 5] of 0.04 %ID/g and a tissue uptake at 1 h [1, 6] of 0.82 %ID/g. The tissue uptake at 2 h [1, 6] was 0.55 %ID/g, the tissue uptake at 4 h [1, 6] was 0.45 %ID/g and the tissue uptake at 6 h ([1]; plasma, 6 h, read-out: plasma % ID/g) was 0.21 %ID/g. The tissue uptake at 24 h [1, 6] was 0.024 %ID/g, the tissue uptake at 8 h ([1]; plasma, 8 h, read-out: plasma % ID/g) was 0.38 %ID/g and the tissue uptake at 12 h [1, 6] was 0.11 %ID/g. It also gave a tissue uptake at 1 h [1, 7] of 5.91 %ID/g, a tissue uptake at 2 h [1, 7] of 2.94 %ID/g and a tissue uptake at 4 h [1, 7] of 1.36 %ID/g. The tissue uptake at 6 h ([1]; spleen, 6 h, read-out: spleen % ID/g) was 0.56 %ID/g, the tissue uptake at 8 h ([1]; spleen, 8 h, read-out: spleen % ID/g) was 0.46 %ID/g and the tissue uptake at 12 h [1, 7] was 0.16 %ID/g. For the same compound, the tissue uptake at 24 h [1, 7] was 0.02 %ID/g, the tissue uptake at 1 h [1, 8] was 6.03 %ID/g and the tissue uptake at 2 h [1, 8] was 3.87 %ID/g. It also gave a tissue uptake at 4 h [1, 8] of 2.35 %ID/g, a tissue uptake at 6 h ([1]; stomach, 6 h, read-out: stomach % ID/g) of 1.14 %ID/g and a tissue uptake at 8 h ([1]; stomach, 8 h, read-out: stomach % ID/g) of 1.65 %ID/g. For the same compound, the tissue uptake at 12 h [1, 8] was 0.19 %ID/g, the tissue uptake at 24 h [1, 8] was 0.07 %ID/g and the tissue uptake at 1 h [1, 9] was 6.06 %ID/g. It also gave a tissue uptake at 2 h [1, 9] of 3.6 %ID/g, a tissue uptake at 4 h [1, 9] of 3.68 %ID/g and a tissue uptake at 6 h ([1]; submaxillary glands, 6 h, read-out: submaxillary glands % ID/g) of 1.12 %ID/g. For the same compound, the tissue uptake at 8 h ([1]; submaxillary glands, 8 h, read-out: submaxillary glands % ID/g) was 0.98 %ID/g, the tissue uptake at 12 h [1, 9] was 0.44 %ID/g and the tissue uptake at 24 h [1, 9] was 0.09 %ID/g. It also gave a tissue uptake at 1 h ([1]; tumor, read-out: tumor % ID/g) of 6.75 %ID/g, a tissue uptake at 2 h ([1]; tumor, read-out: tumor % ID/g) of 6.04 %ID/g and a tissue uptake at 4 h ([1]; tumor, read-out: tumor % ID/g) of 4.82 %ID/g. The tissue uptake at 6 h ([1]; tumor, 6 h, read-out: tumor % ID/g) was 3.53 %ID/g, the tissue uptake at 24 h ([1]; tumor, read-out: tumor % ID/g) was 0.79 %ID/g and the tissue uptake at 8 h ([1]; tumor, up to 8 hours, B16, read-out: intratumoral concentration) was over 1 %ID/g. The tissue uptake at 8 h ([1]; tumor, 8 h, read-out: tumor % ID/g) was 3.42 %ID/g and the tissue uptake at 12 h ([1]; tumor, read-out: tumor % ID/g) was 1.01 %ID/g.
